Data set [1] concerns methicillin-resistant Staphylococcus aureus (MRSA) 18-575. Briefly: MIC, clinical drug-resistant bacteria. Format: cell-based. The settings on record: MRSA 18-575, read-out: Minimum inhibitory concentration against clinical drug-resistant bacteria. The method, then:
(§1) The minimum inhibitory concentration (MIC) of the pleuromutilin derivative containing thiazole-pyridine benzyl quaternary ammonium salt side chain was tested with moxifloxacin as a positive control (purchased from Shanghai Macklin Biochemical Technology Co., Ltd.) using a microbroth dilution method. At the same time, the pleuromutilin derivative containing thiazole-pyridine benzyl quaternary ammonium salt side chain of the invention was compared with the marketed pleuromutilin antibiotics, such as retapamulin (purchased from Nanjing Chemlin Chemical Industry Co., Ltd.), tiamulin (purchased from Shanghai Yuanye Bio-Technology Co., Ltd) and valnemulin (purchased from Shanghai Acmec Biochemical Co., Ltd), in order to screen out pleuromutilin derivatives with better activity.
(§2) Clinical resistant bacteria include multidrug-resistant Pseudomonas aeruginosa (MDR-PA) 18-993, 18-756 and 18-126, multidrug-resistant Klebsiella pneumoniae (MDR-KP) 18-893, 18-754 and 18-1482, methicillin-resistant Staphylococcus aureus (MRSA) 18-171, 18-209 and 18-575, vancomycin-resistant Enterococcus faecalis (VRE) 18-94, 18-80 and 18-507, and carbapenem-resistant Acinetobacter baumannii (CR-AB) 18-184, 18-560 and 18-882, all the clinical drug-resistant strains were from Huashan Hospital, Fudan University.

For data set [2], the system named is carbapenem-resistant Acinetobacter baumannii (CR-AB) 18-184. Briefly: MIC, clinical drug-resistant bacteria. The settings on record: CR-AB 18-184, read-out: Minimum inhibitory concentration against clinical drug-resistant bacteria. Format: cell-based. The procedure:
as §1, §2

Data set [3] has as its system methicillin-resistant Staphylococcus aureus (MRSA) 18-171. Briefly: MIC, clinical drug-resistant bacteria. Format: cell-based. The settings on record: MRSA 18-171, read-out: Minimum inhibitory concentration against clinical drug-resistant bacteria. The method, then:
as §1, §2

Data set [4] deals with methicillin-resistant Staphylococcus aureus (MRSA) 18-209. Put plainly: MIC, clinical drug-resistant bacteria. As to conditions: MRSA 18-209, read-out: Minimum inhibitory concentration against clinical drug-resistant bacteria. Format: cell-based. The method, then:
as §1, §2

The test system of data set [5] is multidrug-resistant Klebsiella pneumoniae (MDR-KP) 18-754. Put plainly: MIC, clinical drug-resistant bacteria. Format: cell-based. The settings on record: MDR-KP 18-754, read-out: Minimum inhibitory concentration against clinical drug-resistant bacteria. The procedure:
as §1, §2

The subject of data set [6] is vancomycin-resistant Enterococcus faecalis (VRE) 18-507. Briefly: MIC, clinical drug-resistant bacteria. Format: cell-based. The settings on record: VRE 18-507; read-out: Minimum inhibitory concentration against clinical drug-resistant bacteria. The method, then: as §1, §2
For data set [7], the system named is vancomycin-resistant Enterococcus faecalis (VRE) 18-80. Briefly: MIC, clinical drug-resistant bacteria. Format: cell-based. The settings on record: VRE 18-80; read-out: Minimum inhibitory concentration against clinical drug-resistant bacteria. The procedure: as §1, §2
Data set [8] has as its system multidrug-resistant Klebsiella pneumoniae (MDR-KP) 18-1482. Briefly: MIC, clinical drug-resistant bacteria. Format: cell-based. As to conditions: MDR-KP 18-1482, read-out: Minimum inhibitory concentration against clinical drug-resistant bacteria. The procedure: as §1, §2
For data set [9], the system named is carbapenem-resistant Acinetobacter baumannii (CR-AB) 18-560. Put plainly: MIC, clinical drug-resistant bacteria. Format: cell-based. As to conditions: CR-AB 18-560, read-out: Minimum inhibitory concentration against clinical drug-resistant bacteria. The procedure:
as §1, §2

The test system of data set [10] is carbapenem-resistant Acinetobacter baumannii (CR-AB) 18-882. Briefly: MIC, clinical drug-resistant bacteria. Format: cell-based. The settings on record: CR-AB 18-882, read-out: Minimum inhibitory concentration against clinical drug-resistant bacteria. The procedure:
as §1, §2

For data set [11], the system named is multidrug-resistant Klebsiella pneumoniae (MDR-KP) 18-893. Put plainly: MIC, clinical drug-resistant bacteria. Format: cell-based. The settings on record: MDR-KP 18-893, read-out: Minimum inhibitory concentration against clinical drug-resistant bacteria. The method, then:
as §1, §2

In data set [12] the test system is vancomycin-resistant Enterococcus faecalis (VRE) 18-94. Put plainly: MIC, clinical drug-resistant bacteria. Format: cell-based. As to conditions: VRE 18-94; read-out: Minimum inhibitory concentration against clinical drug-resistant bacteria. The procedure:
as §1, §2

For data set [13], the system named is multidrug-resistant Pseudomonas aeruginosa (MDR-PA) 18-126. Put plainly: MIC, clinical drug-resistant bacteria. Format: cell-based. The settings on record: MDR-PA 18-126, read-out: Minimum inhibitory concentration against clinical drug-resistant bacteria. The procedure: as §1, §2
For data set [14], the system named is multidrug-resistant Pseudomonas aeruginosa (MDR-PA) 18-993. Briefly: MIC, clinical drug-resistant bacteria. As to conditions: MDR-PA 18-993, read-out: Minimum inhibitory concentration against clinical drug-resistant bacteria. Format: cell-based. The procedure: as §1, §2
For data set [15], the system named is multidrug-resistant Pseudomonas aeruginosa (MDR-PA) 18-756. Put plainly: MIC, clinical drug-resistant bacteria. Format: cell-based. As to conditions: MDR-PA 18-756, read-out: Minimum inhibitory concentration against clinical drug-resistant bacteria. The method, then:
as §1, §2

Data set [16] can be described thus: Determination of solubility of compounds (HPLC). The settings on record: thermodynamic from solid. The method, then:
Experimental method: representative compounds 2, 4 and 7 were selected for solubility determination, and retapamulin hydrochloride was used as a control. 1 mg of each sample was taken and quantitatively dissolved in a 10 mL volumetric flask, and the absorption peak area was measured by a high-performance liquid chromatography; then, the saturated solutions of the representative compounds 2, 4 and 7 and the control drug retapamulin were diluted 10-fold, and the absorption peak area was determined by HPLC; their respective solubility was obtained by calculating the absorption peak area.
The experimental instrument was Shimadzu LC-16, the chromatographic column was Hypersil C18 ODS (4.6×250 mm×5 μm), the flow rate was 1.0 mL/min, the detection wavelength was 300 nm, and the mobile phase was 0.05 mol/L of aqueous acetic acid solution:acetonitrile=30:70.

The structures appear in SMILES notation. Counter-ions that a name gives are not always drawn.

Turning to `C=C[C@]1(C)C[C@@H](OC(=O)CSc2nc(-c3cc[n+](Cc4ccc([N+](=O)[O-])cc4)cc3)cs2)[C@]2(C)[C@H](C)CC[C@]3(CCC(=O)[C@H]32)[C@@H](C)[C@@H]1O` [Compound 7, 1-(4-(nitro)benzyl)-4-(2-(8-hydroxy-4,7,9,12-tetramethyl-3-oxo-7-vinyldecahydro-4,9a-propancyclopent[8]cyclen-5-yl)oxy)-2-oxoethyl)thiazol-4-yl)pyridyl bromide salt], the MIC in data set [1] turned out to be 64 µg/mL; in [2] it was 32 µg/mL; in data set [3], 64 µg/mL; in data set [4], 16 µg/mL; in [5], 16 µg/mL; in data set [6], 64 µg/mL. For the same compound, the MIC turned out to be 8 µg/mL in data set [7]; 16 µg/mL in data set [8]; 64 µg/mL in [9]; 16 µg/mL in [10]; 16 µg/mL in data set [11]; 64 µg/mL in [12]. Further, the MIC in data set [13] was 8 µg/mL; in data set [14], 32 µg/mL; in data set [15], 32 µg/mL. Besides, the solubility in data set [16] (organic solvent or mixture) is 11300 µg/mL; in data set [16] (pH 1.5, simulated gastric fluid), 3450 µg/mL; in [16] (pH 7, water), 2540 µg/mL.
